Test results taken from ChEMBL document CHEMBL3044764, “Synthesis and herbicidal activities of 2-cyano-3-benzylaminoacrylates containing thiazole moiety” (2010).

Experiments:
Medicago sativa [1] = assay: Pre-emergence herbicidal activity against Medicago sativa (alfalfa) at 1500 g/ha after 10 days; format: functional
Brassica napus [2] = assay: Pre-emergence herbicidal activity against Brassica napus (oilseed rape) at 1500 g/ha after 10 days; format: functional
Amaranthus retroflexus [3] = assay: Pre-emergence herbicidal activity against Amaranthus retroflexus at 1500 g/ha after 10 days; format: functional
Brassica napus [4] = assay: Post-emergence herbicidal activity against Brassica napus (oilseed rape) at 1500 g/ha after 10 days; format: functional
[5] = target: Photosystem II protein D1 (Spinacia oleracea) (UniProt P69560); assay: Inhibition of photosystem II in Spinacia oleracea (spinach) chloroplast assessed as inhibition of hill reaction at 1 ug/ml relative to control
Medicago sativa [6] = assay: Post-emergence herbicidal activity against Medicago sativa (alfalfa) at 1500 g/ha after 10 days; format: functional
Amaranthus retroflexus [7] = assay: Post-emergence herbicidal activity against Amaranthus retroflexus at 1500 g/ha after 10 days; format: functional
Amaranthus retroflexus [8] = assay: Post-emergence herbicidal activity against Amaranthus retroflexus at 750 g/ha after 10 days; format: functional
Brassica napus [9] = assay: Post-emergence herbicidal activity against Brassica napus (oilseed rape) at 375 g/ha after 10 days; format: functional
Brassica napus [10] = assay: Post-emergence herbicidal activity against Brassica napus (oilseed rape) at 750 g/ha after 10 days; format: functional
Amaranthus retroflexus [11] = assay: Post-emergence herbicidal activity against Amaranthus retroflexus at 375 g/ha after 10 days; format: functional
Brassica napus [12] = assay: Post-emergence herbicidal activity against Brassica napus (oilseed rape) after 10 days; format: functional

Structure (SMILES) | Activity (Medicago sativa [1]) [%] | Activity (Brassica napus [2]) [%] | Activity (Amaranthus retroflexus [3]) [%] | Activity (Brassica napus [4]) [%] | inhibition [5] [%] | Activity (Medicago sativa [6]) [%] | Activity (Amaranthus retroflexus [7]) [%] | Activity (Amaranthus retroflexus [8]) [%] | Activity (Brassica napus [9]) [%] | Activity (Brassica napus [10]) [%] | Activity (Amaranthus retroflexus [11]) [%] | LD50 (Brassica napus [12]) [g/ha] | LD90 (Brassica napus [12]) [g/ha]
COCCOC(=O)/C(C#N)=C(/C)NCc1ccc(OCc2cnc(Cl)s2)c(OC)c1 | 0 | 15 | 0 | 84.6 | 42.7 | 56.5 | 92.2 |  |  |  |  |  | 
CCOCCOC(=O)/C(C#N)=C(/C)NCc1ccc(OCc2cnc(Cl)s2)cc1 | 0 | 0 | 0 | 100 | 56.5 | 0 | 32.6 |  |  |  |  |  | 
CCOCCOC(=O)/C(C#N)=C(\NCc1ccc(OCc2cnc(Cl)s2)cc1)C(C)C | 0 | 0 | 0 | 100 | 72.5 | 15 | 91.6 | 100 | 51.2 | 100 | 47.2 | 73.01 | 185.4
CC/C(NCc1ccc(OCc2cnc(Cl)s2)c(OC)c1)=C(\C#N)C(=O)OCCOC | 2 | 0 | 0 | 96.6 | 70.2 | 46.8 | 100 | 32.9 | 42.9 | 46.4 | 0 | 237.1 | 817.35
CCOCCOC(=O)/C(C#N)=C(/C)NCc1ccc(OCc2cnc(Cl)s2)c(OC)c1 | 30.6 | 0 | 5 | 94.2 | 68.5 | 30 | 89.6 |  |  |  |  |  | 
CC/C(NCc1ccc(OCc2cnc(Cl)s2)cc1)=C(\C#N)C(=O)OCCOC | 0 | 0 | 0 | 100 | 59.6 | 0 | 0 |  |  |  |  | 205.19 | 640.88
CCOCCOC(=O)/C(C#N)=C(/CC)NCc1ccc(OCc2cnc(Cl)s2)c(OC)c1 | 0 | 5 | 10 | 98.3 | 71.3 | 41.9 | 100 | 30.9 | 41.2 | 74.6 | 21 | 196.53 | 862.13
CCOCCOC(=O)/C(C#N)=C(\NCc1ccc(OCc2cnc(Cl)s2)c(OC)c1)SC | 10 | 10 | 0 | 86.3 | 87.1 | 49.2 | 97.4 |  |  |  |  | 507.9 | 2548.33
COCCOC(=O)/C(C#N)=C(\NCc1ccc(OCc2cnc(Cl)s2)cc1)SC | 0 | 0 | 0 | 100 | 80.9 | 30 | 71.3 |  |  |  |  |  | 
COCCOC(=O)/C(C#N)=C(/C)NCc1ccc(OCc2cnc(Cl)s2)cc1 | 0 | 0 | 0 | 98.5 | 65.2 | 0 | 0 |  |  |  |  |  | 
COCCOC(=O)/C(C#N)=C(\NCc1ccc(OCc2cnc(Cl)s2)cc1)C(C)C | 0 | 0 | 0 | 100 | 82 | 30 | 91.6 | 100 | 92.8 | 100 | 98.1 | 53.48 | 146.04
CCOCCOC(=O)/C(C#N)=C(\NCc1ccc(OCc2cnc(Cl)s2)cc1)SC | 0 | 10 | 0 | 100 | 72.5 | 0 | 100 | 91.6 | 95.1 | 100 | 55.6 | 49.14 | 197.66
CCOCCOC(=O)/C(C#N)=C(\NCc1ccc(OCc2cnc(Cl)s2)c(OC)c1)C(C)C | 0 | 0 | 0 | 100 | 93.8 | 68.5 | 100 | 87.8 | 73.5 | 100 | 59.3 | 131.42 | 484.4
COCCOC(=O)/C(C#N)=C(\NCc1ccc(OCc2cnc(Cl)s2)c(OC)c1)SC | 50.6 | 0 | 2.7 | 83.6 | 61.2 | 66.1 | 89.6 |  |  |  |  |  | 
COCCOC(=O)/C(C#N)=C(\NCc1ccc(OCc2cnc(Cl)s2)c(OC)c1)C(C)C | 42.9 | 41.7 | 0 | 100 | 80.4 | 71.1 | 100 | 89.8 | 62.4 | 94.1 | 73.6 | 101.62 | 251.01
CCOCCOC(=O)/C(C#N)=C(/CC)NCc1ccc(OCc2cnc(Cl)s2)cc1 | 0 | 0 | 0 | 100 | 70.2 | 10 | 96.3 | 84.4 | 40 | 100 | 24.5 | 83.96 | 311.43
CCOCCOC(=O)/C(C#N)=C(\NCc1ccc(Cl)nc1)SC | 0 | 90.7 | 35.1 | 100 | 75.8 | 85 | 100 | 100 | 100 | 100 | 100 | 8.84 | 133.77
